According to paper PMC4449006, “Targeting KRAS Oncogene in Colon Cancer Cells with 7-Carboxylate Indolo[3,2-b]quinoline Tri-Alkylamine Derivatives” (PLoS ONE, 2015):

Columns and labels:
T-Loop duplex DNA = assay: FRET melting assay, duplex DNA; assay type: binding; conditions: 1 μM compound; standard deviation < 0.2°C
Protocol: (§1) The capacity of compounds 1a-d, 2a-d and the standard G4 ligand TMPyP4 (Fig 1) to bind and stabilize KRAS [26] and HSP90A [27] G4 DNA structures as well as duplex DNA (T-loop) was evaluated by a Fluorescence Resonance Energy Transfer (FRET) melting assay. […] It was observed that the basicity of side chains correlates positively with thermal G4 stabilization of all DNA sequences up to an optimal pKa ~ 8.0–9.0 (Fig 2). Heterocyclic amines at the end of alkyl side chain (1b and 2b) appear to improve binding to G4s and complex stabilization compared to the di-ethylamine group (1a and 2a), which cannot be explained by differences in basicity between terminal groups. […] However, this was not observed for the isomeric pair 1a / 2a.
(§2) All oligonucleotides were purchased from Eurofins MWG Synthesis GmbH, Germany. The labeled oligonucleotides used in the FRET assays had attached the donor fluorophore FAM (6-carboxyfluorescein) and the acceptor fluorophore TAMRA (6-carboxytetramethylrhodamine): KRAS21R (5’-FAM-[…]-TAMRA-3’); HSP90A (5’- [FAM]-[…]-[TAMRA]-3’); T-Loop (5’-FAM-[…]-TAMRA-3’). Each oligonucleotide was initially diluted to a storage solution at 100 μM in nuclease free water (not DEPC-treated), purchased from Ambion Applied Biosystems UK.
(§3) The ability of IQ3A and TMPyP4 to stabilize G-quadruplex and duplex DNA sequences was investigated using a Fluorescence Resonance Energy Transfer (FRET) assay. Stock solution of the oligonucleotides sequences at 20 μM and subsequent dilutions were obtained from storage solutions diluting with K-cacodylate buffer pH = 7.4, containing 60 mM K^+ (10 mM potassium cacodylate, 50 mM KCl). The FRET probe sequences were diluted from stock to the correct concentration (0.4 μM) and then annealed by heating to 95°C for 10 min, followed by cooling to RT. Test compounds were prepared as 1 mM in 10% DMSO and 10% 1mM HCl in HPLC-grade water. The rest of the dilutions were performed using FRET buffer. Annealed DNA (50 μL) and compound solution (50 μL) were distributed across 96-well RT-PCR plates (BioRad; MJ Research, Waltham, MA, USA). Relevant controls were also performed to check for interference with the assay. Fluorescence readings were made on a DNA Engine Opticon (MJ Research) with excitation at 450–495 nm and detection at 515–545 nm, taken at intervals of 0.5°C in the range 30–100°C, with a constant temperature being maintained for 30 s prior to each reading to ensure a stable value. Experiments were performed in triplicate. Final analysis of the data was carried out with GraphPad Prism 5.0 software (GraphPad Software, Inc). The advanced curve-fitting function in GraphPad Prism was used for calculation of ΔT m values and associated standard deviations.

HEK293T cells = assay: MTS short-term cytotoxicity assay (72 h), HEK293T; assay type: cell-based, human
Protocol: (§4) The short-term effect of compounds at 72 h on cell growth was studied using colorectal carcinoma cell lines with different KRAS and TP53 genotypes: human colorectal carcinoma HCT116 (mut Kras, wild-type (wt) p53), and human metastatic colorectal adenocarcinoma SW620 (mut Kras, mut p53). In parallel, we also used the immortalized human embryonic kidney cell line HEK293T (wt Kras, wt p53) and normal human colon fibroblast cells CCD18co (wt Kras, wt p53).
(§5) SW620 human colorectal adenocarcinoma cells (European Collection of Cell Cultures, ECACC, Porton Down, Wiltshire, UK), HEK293T human embryonic kidney cells (ATCC, LGC Standards, UK) HCT116 human colon carcinoma cells (ECACC), HCT116 p53(+/+) and p53(−/−) isogenic human colon cancer cells (GRCF Cell Center and Biorepository, the Johns Hopkins University, School of Medicine, Baltimore, MD, USA), were grown in Dulbecco’s modified Eagle’s medium (DMEM) supplemented with 10% fetal bovine serum, and 1% antibiotic/antimycotic (Invitrogen, Grand Island, NY, USA), CCD18co human colon fibroblasts (ATCC, CRL-1459) were grown in Minimum Essential Medium (MEM) supplemented with 10% fetal bovine serum, 1% antibiotic/antimycotic, 2 mM GlutaMAX, 0,1 mM Non-essential amino acids (NEAA) (Invitrogen) and […] Recombinant Human TNF-α (Peprotech, USA) and maintained at 37°C in a humidified atmosphere of 5% CO2.
(§6) Cell viability was evaluated by the tetrazolium dye (MTS) Short-Term Cytotoxicity Assay. […] Following 72 h of compound exposure, cell viability was evaluated using the CellTiter 96 AQueous Non-Radioactive Cell Proliferation Assay (Promega, Madison, WI, USA), using 3-(4,5-dimethylthiazol-2-yl)-5-(3-carboxymethoxyphenyl)-2-(4-sulfophenyl)-2H-tetrazolium, inner salt (MTS) as previously described [35]. Cell viability data were expressed as mean ±SD from at least three independent experiments. IC50 and IC65 values were determined using GaphPad Prism v.5.00 (GraphPad Software). In selected experiments, cell viability was also assessed by trypan blue exclusion assay, and general cell death by LDH activity from cell culture supernatants.

CCD18co cells = assay: MTS short-term cytotoxicity assay (72 h), CCD18co; assay type: cell-based; conditions: Homo sapiens, CCD-18Co, read-out: CCD18co IC50
Protocol: as §4, §5, §6

SW620 cells = assay: MTS short-term cytotoxicity assay (72 h), SW620; assay type: cell-based
Protocol: as §4, §5, §6

KRAS gene promoter = assay: KRAS promoter activity Dual-Luciferase reporter assay; assay type: cell-based, human; conditions: HCT116 and SW620 cells, PGL-Ras0.5, 24 h, IC50 concentrations
Text: To validate that the mechanism of anti-proliferative activity and apoptotic induction by IQ3A compounds involves repression of KRAS gene expression as a result of the stabilization of G4-forming sequences present in the promoter, the effects of compounds on the KRAS gene promoter were directly evaluated by a luciferase reporter assay. For this purpose, we used two different size promoter constructs containing the G4 region of the KRAS gene promoter, cloned into the pGL3 Basic backbone: pGL-Ras0.5, pGL-Ras2.0, and pGL3 Basic empty (Firefly Luciferase negative control/no promoter), co-transfected together with pRL-TK (transfection efficiency normalization) into HEK293T cells, as a G4 negative control.
KRAS promotor luciferase reporters respectively harbor 500 bp and 2000 bp of the human KRAS promotor region, kindly provided by Prof. Kim Nam-Soon. pGL3 Basic empty was used as negative control, and pRL-TK simultaneously for transfection efficiency normalization and as a G4 negative control. […] Finally, 72 h after compound incubation, cells were lysed and firefly and renilla luciferase activities were measured using Dual-Luciferase Reporter Assay System (Promega). […] Twenty-four h later, cells were lysed and renilla luciferase activities were measured and expressed as above. The results are expressed as the mean ± SEM fold-change compared to DMSO exposure, from three independent experiments.

HCT116 cells = assay: MTS short-term cytotoxicity assay (72 h), HCT116; assay type: cell-based, human
Protocol: as §4, §5, §6

KRAS21 G-quadruplex DNA = assay: FRET melting assay, KRAS G-quadruplex DNA; assay type: binding; conditions: 1 μM compound; standard deviation < 0.2°C
Protocol: as §1, §2, §3

KRAS protein = KRAS protein steady-state expression by immunoblot; conditions: HCT116, 72 h, equitoxic (IC50) concentration
KRAS mRNA = KRAS mRNA steady-state levels by Taqman Real-time RT-PCR; conditions: HCT116, 72 h, equitoxic concentration
[1] = 72 h, MTS, standard errors ≤ 0.1

C[n+]1ccc(-c2c3nc(c(-c4cc[n+](C)cc4)c4ccc([nH]4)c(-c4cc[n+](C)cc4)c4ccc([nH]4)c(-c4cc[n+](C)cc4)c4nc2C=C4)C=C3)cc1 [TMPyP4, reference compound]
ΔTm (°C) T-Loop 1 μM (T-Loop duplex DNA): 16 °C
IC50 (HEK293T cells; Homo sapiens, HEK-293T, read-out: HEK293T IC50): 2.97 µM
HEK293T IC65 (HEK293T cells; MTS, standard errors ≤ 0.1): 4.11 µM
IC50 (CCD18co cells): 38.2 µM
SW620 IC65 (SW620 cells; [1]): > 20 µM
IC50 (SW620 cells; Homo sapiens, SW-620, 72 h, read-out: SW620 IC50): > 20 µM
reduction of KRAS promoter activity (KRAS gene promoter): significantly reduce KRAS promoter activity
HCT116 IC65 (HCT116 cells; [1]): 14.21 µM
Selective index (SI) = IC50 CCD-18co / IC50 HCT116 (HCT116 cells; CCD18co vs HCT116): 3.08
IC50 (HCT116 cells; Homo sapiens, HCT-116, 72 h, read-out: HCT116 IC50): 12.4 µM
ΔTm (°C) KRAS21 1 μM (KRAS21 G-quadruplex DNA): 25 °C
decrease of KRAS protein steady-state levels (KRAS protein): ~80%
reduction of KRAS mRNA steady-state levels (KRAS mRNA): unable to reduce KRAS mRNA steady-state levels
